According to ChEMBL document CHEMBL4219086, “Development of benzoxazole deoxybenzoin oxime and acyloxylamine derivatives targeting innate immune sensors and xanthine oxidase for treatment of gout” (Bioorg Med Chem, 2018):
Active and inactive are the calls of the source. The calls are words filed in the database; no cut-off is given here.

Experiments:
Rattus norvegicus [1] = assay: Inhibition of MSU-induced MyD88 protein level in synovial homogenate of acute gouty arthritis Sprague-Dawley rat model at 2.5 to 10 mg/kg, po qd pretreated via gavage for 5 days followed by MSU treatment at 1 hr post last dose measured up to 24 hrs by Western blot method; assay type: functional, organism-based
Rattus norvegicus [2] = assay: (§1) Antiarthritic activity in MSU-induced acute gouty arthritis Sprague-Dawley rat model assessed as reduction in ankle swelling by measuring perimeter of ankle at 5 mg/kg, po qd pretreated via gavage for 5 days followed by MSU treatment at 1 hr post last dose measured after 12 hrs (reference value: 3.51 +/- 0.52 cm); assay type: functional
Toll-like receptor 4 = Toll-like receptor 4 (Homo sapiens, UniProt O00206); assay: Inhibition of human TLR4 signaling expressed in HEK-Blue cells co-expressing MD2/CD14 assessed as reduction in LPS-induced NF-kappaB activation-mediated SEAP production preincubated for 2 hrs followed by LPS stimulation for 20 hrs by colorimetric assay; assay type: cell-based
[3] = target: Xanthine dehydrogenase/oxidase (Homo sapiens, UniProt P47989); assay: Inhibition of Xanthine oxidase (unknown origin) using xanthine as substrate preincubated for 1 to 5 mins followed by substrate addition
Mus musculus [4] = assay: Hypouricemic effect in Kunming mouse assessed as inhibition of hepatic XOD activity at 10 mg/kg, po measured after 1 hr relative to control; assay type: organism-based
Rattus norvegicus [5] = assay: Inhibition of MSU-induced TNFalpha level in synovial homogenate of acute gouty arthritis Sprague-Dawley rat model at 2.5 to 10 mg/kg, po qd pretreated via gavage for 5 days followed by MSU treatment at 1 hr post last dose measured up to 24 hrs by ELISA; assay type: functional, organism-based
Rattus norvegicus [6] = assay: Inhibition of MSU-induced ASC protein level in synovial homogenate of acute gouty arthritis Sprague-Dawley rat model at 2.5 to 10 mg/kg, po qd pretreated via gavage for 5 days followed by MSU treatment at 1 hr post last dose measured up to 24 hrs by Western blot method; assay type: functional, organism-based
Mus musculus [7] = assay: In vivo inhibition of XOD activity in liver of Kunming mouse model of potassium oxonate-induced hyperuricemia at 2.5 mg/kg, po treated 1 hr post potassium oxonate addition measured after 1 hr relative to control; assay type: functional
[8] = target: NACHT, LRR and PYD domains-containing protein 3 (Homo sapiens, UniProt Q96P20); assay: Inhibition of NLRP3 inflammasome in human THP1 cells assessed as reduction in MSU-induced IL-1beta production preincubated for 1 hr followed by MSU stimulation measured after 6 hrs; assay type: cell-based
Rattus norvegicus [9] = assay: as §1, with “at 2.5” for “at 5”, “after 4” for “after 12”, “value: 3.18” for “value: 3.51”, “+/- 0.64” for “+/- 0.52”; assay type: functional
Rattus norvegicus [10] = assay: as §1, with “at 10” for “at 5”, “after 2” for “after 12”, “value: 2.82” for “value: 3.51”, “+/- 0.75” for “+/- 0.52”; assay type: functional
Mus musculus [11] = assay: In vivo inhibition of XOD activity in liver of Kunming mouse model of potassium oxonate-induced hyperuricemia at 10 mg/kg, po treated 1 hr post potassium oxonate addition measured after 1 hr relative to control; assay type: functional
Rattus norvegicus [12] = assay: as §1, with “8” for “12”, “3.27” for “3.51”, “0.56” for “0.52”; assay type: functional
Rattus norvegicus [13] = assay: as §1, with “at 2.5” for “at 5”, “measured immediately” for “measured after 12 hrs”, “value: 2.64” for “value: 3.51”, “+/- 0.81” for “+/- 0.52”; assay type: functional
Rattus norvegicus [14] = assay: Inhibition of MSU-induced p65 NFkappaB protein level in synovial homogenate of acute gouty arthritis Sprague-Dawley rat model at 2.5 to 10 mg/kg, po qd pretreated via gavage for 5 days followed by MSU treatment at 1 hr post last dose measured up to 24 hrs by Western blot method; assay type: functional, organism-based
Rattus norvegicus [15] = assay: Antiarthritic activity in po dosed MSU-induced acute gouty arthritis Sprague-Dawley rat model assessed as reduction in ankle swelling pretreated qd via gavage for 5 days followed by MSU treatment at 1 hr post last dose measured after 24 hrs; assay type: functional, organism-based
Rattus norvegicus [16] = assay: as §1, with “at 2.5” for “at 5”, “after 2” for “after 12”, “value: 2.82” for “value: 3.51”, “+/- 0.75” for “+/- 0.52”; assay type: functional
Rattus norvegicus [17] = assay: as §1, with “at 10” for “at 5”, “after 4” for “after 12”, “value: 3.18” for “value: 3.51”, “+/- 0.64” for “+/- 0.52”; assay type: functional
Rattus norvegicus [18] = assay: as §1, with “at 10” for “at 5”, “after 24” for “after 12”, “value: 3.35” for “value: 3.51”, “+/- 0.5” for “+/- 0.52”; assay type: functional
Rattus norvegicus [19] = assay: Inhibition of MSU-induced NLRP3 protein level in synovial homogenate of acute gouty arthritis Sprague-Dawley rat model at 2.5 to 10 mg/kg, po qd pretreated via gavage for 5 days followed by MSU treatment at 1 hr post last dose measured up to 24 hrs by Western blot method; assay type: functional, organism-based
Rattus norvegicus [20] = assay: Inhibition of MSU-induced TNFalpha level in serum of acute gouty arthritis Sprague-Dawley rat model at 2.5 to 10 mg/kg, po qd pretreated via gavage for 5 days followed by MSU treatment at 1 hr post last dose measured up to 24 hrs by ELISA; assay type: functional, organism-based
Rattus norvegicus [21] = assay: as §1, with “2” for “12”, “2.82” for “3.51”, “0.75” for “0.52”; assay type: functional
Rattus norvegicus [22] = assay: as §1, with “4” for “12”, “3.18” for “3.51”, “0.64” for “0.52”; assay type: functional
Rattus norvegicus [23] = assay: Inhibition of MSU-induced TLR4 protein level in synovial homogenate of acute gouty arthritis Sprague-Dawley rat model at 2.5 to 10 mg/kg, po qd pretreated via gavage for 5 days followed by MSU treatment at 1 hr post last dose measured up to 24 hrs by Western blot method; assay type: functional, organism-based
Rattus norvegicus [24] = assay: as §1, with “at 2.5” for “at 5”, “after 8” for “after 12”, “value: 3.27” for “value: 3.51”, “+/- 0.56” for “+/- 0.52”; assay type: functional
Rattus norvegicus [25] = assay: as §1, with “at 2.5” for “at 5”; assay type: functional
Mus musculus [26] = assay: Hypouricemic effect in Kunming mouse assessed as inhibition of hepatic XOD activity at 5 mg/kg, po measured after 1 hr relative to control; assay type: organism-based
Rattus norvegicus [27] = assay: as §1, with “immediately” for “after 12 hrs”, “2.64” for “3.51”, “0.81” for “0.52”; assay type: functional
Rattus norvegicus [28] = assay: Inhibition of MSU-induced IL-1beta level in synovial homogenate of acute gouty arthritis Sprague-Dawley rat model at 2.5 to 10 mg/kg, po qd pretreated via gavage for 5 days followed by MSU treatment at 1 hr post last dose measured up to 24 hrs by ELISA; assay type: functional, organism-based

Chain of Toll-like receptor 4 (O00206 whole entry): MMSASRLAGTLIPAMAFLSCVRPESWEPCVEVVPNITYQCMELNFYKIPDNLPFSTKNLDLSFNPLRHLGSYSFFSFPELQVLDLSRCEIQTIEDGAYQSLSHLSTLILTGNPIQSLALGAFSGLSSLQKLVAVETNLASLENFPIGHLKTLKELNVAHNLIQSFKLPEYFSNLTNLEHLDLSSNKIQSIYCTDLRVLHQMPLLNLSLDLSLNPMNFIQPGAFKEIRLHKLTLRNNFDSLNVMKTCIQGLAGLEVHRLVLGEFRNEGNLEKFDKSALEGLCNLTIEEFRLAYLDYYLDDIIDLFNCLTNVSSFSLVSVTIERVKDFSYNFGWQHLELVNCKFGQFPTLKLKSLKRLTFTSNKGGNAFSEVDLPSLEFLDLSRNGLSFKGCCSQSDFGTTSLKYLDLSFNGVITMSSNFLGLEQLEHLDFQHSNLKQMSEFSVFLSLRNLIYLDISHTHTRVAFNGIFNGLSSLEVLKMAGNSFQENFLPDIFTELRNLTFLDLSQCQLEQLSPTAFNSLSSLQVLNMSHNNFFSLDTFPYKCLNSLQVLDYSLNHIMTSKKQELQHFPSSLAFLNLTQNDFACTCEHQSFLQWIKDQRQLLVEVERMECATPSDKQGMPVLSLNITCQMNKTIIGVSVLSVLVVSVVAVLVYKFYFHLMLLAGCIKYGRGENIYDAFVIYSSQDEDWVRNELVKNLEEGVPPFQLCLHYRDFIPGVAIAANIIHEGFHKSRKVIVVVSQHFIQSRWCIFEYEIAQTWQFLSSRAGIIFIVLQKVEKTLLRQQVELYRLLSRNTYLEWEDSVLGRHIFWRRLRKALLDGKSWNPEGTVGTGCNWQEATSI
Chain of Xanthine dehydrogenase/oxidase (P47989 whole entry): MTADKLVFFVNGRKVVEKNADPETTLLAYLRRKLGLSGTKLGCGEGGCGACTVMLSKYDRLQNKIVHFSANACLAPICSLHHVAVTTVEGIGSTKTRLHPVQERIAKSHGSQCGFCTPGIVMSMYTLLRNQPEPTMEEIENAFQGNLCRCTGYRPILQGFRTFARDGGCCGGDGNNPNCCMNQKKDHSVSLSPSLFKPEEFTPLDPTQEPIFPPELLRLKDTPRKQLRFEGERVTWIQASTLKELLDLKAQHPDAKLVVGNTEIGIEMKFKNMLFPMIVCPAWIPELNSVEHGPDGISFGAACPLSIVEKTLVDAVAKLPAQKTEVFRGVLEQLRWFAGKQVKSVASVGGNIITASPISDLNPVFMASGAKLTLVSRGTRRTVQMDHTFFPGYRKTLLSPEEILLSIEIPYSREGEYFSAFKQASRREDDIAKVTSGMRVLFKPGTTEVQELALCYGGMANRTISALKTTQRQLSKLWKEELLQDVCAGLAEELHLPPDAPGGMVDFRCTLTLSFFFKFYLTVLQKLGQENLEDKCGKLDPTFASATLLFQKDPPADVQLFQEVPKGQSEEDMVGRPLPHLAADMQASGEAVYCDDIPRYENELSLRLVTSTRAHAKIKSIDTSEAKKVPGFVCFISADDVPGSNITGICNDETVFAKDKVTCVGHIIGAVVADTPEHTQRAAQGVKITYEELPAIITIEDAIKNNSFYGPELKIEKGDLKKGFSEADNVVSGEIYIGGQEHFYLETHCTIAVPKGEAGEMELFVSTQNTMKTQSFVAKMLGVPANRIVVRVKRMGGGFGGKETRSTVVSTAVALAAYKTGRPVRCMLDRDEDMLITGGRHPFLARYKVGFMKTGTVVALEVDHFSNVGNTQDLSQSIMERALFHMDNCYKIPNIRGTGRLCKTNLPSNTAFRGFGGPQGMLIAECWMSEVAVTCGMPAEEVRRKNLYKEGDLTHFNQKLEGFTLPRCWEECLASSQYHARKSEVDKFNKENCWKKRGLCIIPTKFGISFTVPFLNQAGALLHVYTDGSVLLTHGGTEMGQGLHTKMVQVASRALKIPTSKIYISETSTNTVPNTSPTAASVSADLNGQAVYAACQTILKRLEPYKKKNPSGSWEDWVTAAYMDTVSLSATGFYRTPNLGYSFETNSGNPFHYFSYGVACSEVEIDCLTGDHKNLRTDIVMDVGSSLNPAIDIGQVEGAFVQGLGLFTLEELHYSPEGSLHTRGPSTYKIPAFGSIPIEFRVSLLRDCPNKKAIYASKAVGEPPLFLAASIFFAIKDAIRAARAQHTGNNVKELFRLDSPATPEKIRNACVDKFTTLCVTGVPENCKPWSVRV
Chain of NACHT, LRR and PYD domains-containing protein 3 (Q96P20 whole entry, the tested form may be a part): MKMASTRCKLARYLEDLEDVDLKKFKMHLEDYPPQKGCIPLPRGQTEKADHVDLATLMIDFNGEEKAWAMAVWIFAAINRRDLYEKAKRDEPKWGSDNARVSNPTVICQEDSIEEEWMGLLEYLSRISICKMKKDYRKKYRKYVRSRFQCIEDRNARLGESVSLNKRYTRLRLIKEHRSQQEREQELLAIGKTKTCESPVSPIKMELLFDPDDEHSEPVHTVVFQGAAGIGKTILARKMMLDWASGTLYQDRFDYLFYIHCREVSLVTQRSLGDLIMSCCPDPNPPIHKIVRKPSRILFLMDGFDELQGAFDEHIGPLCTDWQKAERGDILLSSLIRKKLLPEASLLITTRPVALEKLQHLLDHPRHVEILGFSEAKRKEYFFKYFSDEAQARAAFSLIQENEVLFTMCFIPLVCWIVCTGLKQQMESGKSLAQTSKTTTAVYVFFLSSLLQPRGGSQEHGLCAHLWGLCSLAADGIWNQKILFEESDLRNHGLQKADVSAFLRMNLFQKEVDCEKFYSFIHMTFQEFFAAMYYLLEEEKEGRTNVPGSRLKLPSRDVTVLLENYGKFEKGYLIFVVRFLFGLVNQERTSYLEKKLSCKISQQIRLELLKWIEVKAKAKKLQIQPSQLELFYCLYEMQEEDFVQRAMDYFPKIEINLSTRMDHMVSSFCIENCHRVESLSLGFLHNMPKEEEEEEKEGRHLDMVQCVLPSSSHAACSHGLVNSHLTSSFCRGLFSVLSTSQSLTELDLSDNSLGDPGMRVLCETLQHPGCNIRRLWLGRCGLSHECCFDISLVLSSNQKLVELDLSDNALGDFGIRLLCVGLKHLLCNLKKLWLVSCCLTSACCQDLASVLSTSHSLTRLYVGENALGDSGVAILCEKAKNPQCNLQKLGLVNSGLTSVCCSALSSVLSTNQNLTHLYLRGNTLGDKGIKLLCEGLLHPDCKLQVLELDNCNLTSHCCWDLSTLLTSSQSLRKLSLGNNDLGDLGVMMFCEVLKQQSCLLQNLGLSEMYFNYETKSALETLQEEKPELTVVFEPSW

IC50 (Toll-like receptor 4): 540 nM
IC50 [3]: 3700 nM
IC50 [8]: 1220 nM
Structure (SMILES): COc1ccc(C/C(=N\O)c2nc3ccc(OC)cc3o2)cc1
inhibition (Rattus norvegicus [1]): Active
Activity (Rattus norvegicus [2]): 2.99 cm
inhibition at 10 mg/kg (Mus musculus [4]): 10.2%
inhibition (Rattus norvegicus [5]): Active
inhibition (Rattus norvegicus [6]): Active
inhibition in vivo at 2.5 mg/kg (Mus musculus [7]): 19.2%
Activity (Rattus norvegicus [9]): 2.95 cm
Activity (Rattus norvegicus [10]): 2.69 cm
inhibition in vivo at 10 mg/kg (Mus musculus [11]): 41.9%
Activity (Rattus norvegicus [12]): 2.88 cm
Activity (Rattus norvegicus [13]): 2.65 cm
inhibition (Rattus norvegicus [14]): Active
Activity (Rattus norvegicus [15]): Dose-dependent effect
Activity (Rattus norvegicus [16]): 2.78 cm
Activity (Rattus norvegicus [17]): 2.79 cm
Activity (Rattus norvegicus [18]): 2.73 cm
inhibition (Rattus norvegicus [19]): Active
inhibition (Rattus norvegicus [20]): Active
Activity (Rattus norvegicus [21]): 2.56 cm
Activity (Rattus norvegicus [22]): 2.84 cm
inhibition (Rattus norvegicus [23]): Active
Activity (Rattus norvegicus [24]): 2.96 cm
Activity (Rattus norvegicus [25]): 3.14 cm
inhibition at 5 mg/kg (Mus musculus [26]): 6.8%
Activity (Rattus norvegicus [27]): 2.7 cm
inhibition (Rattus norvegicus [28]): Active
